Test results as given in US7223759B2, “Antibacterial 3,5-diaminopiperidine-substituted aromatic and heteroaromatic compounds” (Anadys Pharmaceuticals, Inc., priority 2003, dated 2007).
Read-outs that look alike come from different tables or passages of the source.

Tested on: Escherichia coli (ATCC25922) or Staphylococcus aureus (ATCC25923)
Experiment: Antibacterial MIC, microdilution method in Mueller-Hinton medium
Assay type: cell-based
Conditions: for MIC: Escherichia coli, 18 h, read-out: Potency (MIC)
Method in brief: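 Read after 18 h incubation at 35° C, MIC is the lowest compound level that blocked growth. Compounds were tested in duplicate over 64–0.5 μg/ml two-fold dilutions using Mueller-Hinton microdilution per NCCLS standard.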

[1] = MIC in E. coli or S. aureus, two-fold serial dilutions 64 to 0.5 μg/ml in duplicate, 18 hours of incubation at 35° C.

Row | Compound | MIC [µg/mL] | Potency (MIC) [1] | other results
1 | NCCN(CCN)c1nc(Nc2ccc(NC(=O)C(=O)c3c[nH]c4ccccc34)c(O)c2)nc(N2C[C@H](N)C[C@H](N)C2)n1 [N-{4-[4-[Bis-(2-amino-ethyl)-amino]-6-((3R,5S)-3,5-diamino-piperidin-1-yl)-[1,3,5]triazin-2-ylamino]-2-hydroxy-phenyl}-2-(1H-indol-3-yl)-2-oxo-acetamide] | < 16 |  | 
2 | NCCN(CCN)c1nc(Nc2ccc(NC(=O)c3ccc(Cl)cc3)c(O)c2)nc(N2C[C@H](N)C[C@H](N)C2)n1 [N-{4-[4-[Bis-(2-amino-ethyl)-amino]-6-((3R,5S)-3,5-diamino-piperidin-1-yl)-[1,3,5]triazin-2-ylamino]-2-hydroxy-phenyl}-4-chloro-benzamide] | < 64 |  | 
3 | Cc1ccc(C(=O)Nc2ccc(Nc3nc(N(CCN)CCN)nc(N4CCCCC4)n3)cc2O)cc1.Cl [N-{4-[4-[Bis-(2-amino-ethyl)-amino]-6-((3R,5S)-3,5-diamino-piperidin-1-yl-[1,3,5]triazin-2-ylamino]-2-hydroxy-phenyl}-4-methyl-benzamide] |  |  | MIC [1]: < 64 µg/mL
4 | N[C@@H]1C[C@H](N)CN(c2nc(Nc3ccc(NC(=O)c4ccc5ccccc5c4O)cc3)nc(N3C[C@H](N)C[C@H](N)C3)n2)C1 [N-{4-[(1-hydroxy-naphthalene-2-carbonyl)-amino]-phenyl}-4,6-Bis-((3R,5S)-3,5-diamino-piperidin-1-yl)-[1,3,5]triazine-2-amine] | < 16 |  | 
5 | N[C@@H]1C[C@H](N)CN(c2nc(Nc3ccc(NC(=O)c4ccc(C(F)(F)F)nc4O)cc3)nc(N3C[C@H](N)C[C@H](N)C3)n2)C1 [N-{4-[(2-hydroxy-6-trifluoromethyl-pyridine-3-carbonyl)-amino]-phenyl}-4,6-Bis-((3R,5S)-3,5-diamino-piperidin-1-yl)-[1,3,5]triazine-2-amine] | < 16 |  | 
6 | N[C@@H]1C[C@H](N)CN(c2nc(Nc3ccc(NC(=O)c4c(O)ccc5ccccc45)cc3)nc(N3C[C@H](N)C[C@H](N)C3)n2)C1 [N-{4-[(2-hydroxy-naphthalene-1-carbonyl)-amino]-phenyl}-4,6-Bis-((3R,5S)-3,5-diamino-piperidin-1-yl)-[1,3,5]triazine-2-amine] | < 16 |  | 
7 | Cc1cc(NC(=O)c2cc3cccc(O)c3cc2O)ccc1Nc1nc(N2C[C@H](N)C[C@H](N)C2)nc(N2C[C@H](N)C[C@H](N)C2)n1 [N-{4-[(3,5-dihydroxy-naphthalene-2-carbonyl)-amino]-2-methyl-phenyl}-4,6-Bis-((3R,5S)-3,5-diamino-piperidin-1-yl)-[1,3,5]triazine-2-amine] |  |  | MIC [1]: < 64 µg/mL
8 | Cc1cc(Nc2nc(N3C[C@H](N)C[C@H](N)C3)nc(N3C[C@H](N)C[C@H](N)C3)n2)ccc1NC(=O)c1cc2cccc(O)c2cc1O [N-{4-[(3,5-dihydroxy-naphthalene-2-carbonyl)-amino]-3-methyl-phenyl]-4,6-Bis-((3R,5S)-3,5-diamino-piperidin-1-yl)-[1,3,5]triazine-2-amine] |  |  | MIC [1]: < 64 µg/mL
9 | N[C@@H]1C[C@H](N)CN(c2nc(Nc3ccc(NC(=O)c4cc5cccc(O)c5cc4O)cc3)nc(N3C[C@H](N)C[C@H](N)C3)n2)C1 [N-{4-[(3,5-dihydroxy-naphthalene-2-carbonyl)-amino]-phenyl}-4,6-Bis-((3R,5S)-3,5-diamino-piperidin-1-yl)-[1,3,5]triazine-2-amine] |  |  | MIC [1]: < 64 µg/mL
10 | N[C@@H]1C[C@H](N)CN(c2nc(Nc3ccc(NC(=O)c4ncccc4O)cc3)nc(N3C[C@H](N)C[C@H](N)C3)n2)C1 [N-{4-[(3-hydroxy-pyridine-2-carbonyl)-amino]-phenyl}-4,6-Bis-((3R,5S)-3,5-diamino-piperidin-1-yl)-[1,3,5]triazine-2-amine] | < 64 |  | 
11 | N[C@@H]1C[C@H](N)CN(c2nc(Nc3ccc(NC(=O)c4cc(Cl)cnc4O)cc3)nc(N3C[C@H](N)C[C@H](N)C3)n2)C1 [N-{4-[(5-chloro-2-hydroxy-pyridine-3-carbonyl)-amino]-phenyl}-4,6-Bis-((3R,5S)-3,5-diamino-piperidin-1-yl)-[1,3,5]triazine-2-amine] | < 64 |  | 
12 | N[C@@H]1C[C@H](N)CN(c2nc(Nc3ccc(NC(=O)c4ccc5cccnc5c4O)cc3)nc(N3C[C@H](N)C[C@H](N)C3)n2)C1 [N-{4-[(8-hydroxy-quinoline-7-carbonyl)-amino]-phenyl}-4,6-Bis-((3R,5S)-3,5-diamino-piperidin-1-yl)-[1,3,5]triazine-2-amine] | < 16 |  | 
13 | N[C@@H]1C[C@H](N)CN(c2nc(Nc3ccc(NC(=O)C45CC6CC(CC(C6)C4)C5)c(O)c3)nc(N3C[C@H](N)C[C@H](N)C3)n2)C1 [N-{4-[(adamantane-1-carbonyl)-amino]-3-hydroxy-phenyl}-4,6-Bis-((3R,5S)-3,5-diamino-piperidin-1-yl)-[1,3,5]triazine-2-amine] |  |  | MIC [1]: < 16 µg/mL
14 | N[C@@H]1C[C@H](N)CN(c2nc(Nc3ccc(C(=O)NCc4ccc5c(c4)OCO5)c(O)c3)nc(N3C[C@H](N)C[C@H](N)C3)n2)C1 [N-{4-[(benzo[1,3]dioxol-5-ylmethyl)-carbamoyl]-3-hydroxy-phenyl}-4,6-Bis-((3R,5S)-3,5-diamino-piperidin-1-yl)-[1,3,5]triazine-2-amine] | < 64 |  | 
15 | Cc1ccc(S(=O)(=O)N(Cc2ccccc2)c2ccc(Nc3nc(N4C[C@H](N)C[C@H](N)C4)nc(N4C[C@H](N)C[C@H](N)C4)n3)cc2O)cc1 [N-{4-[benzyl-(toluene-4-sulfonyl)-amino]-3-hydroxy-phenyl}-4,6-Bis-((3R,5S)-3,5-diamino-piperidin-1-yl)-[1,3,5]triazine-2-amine] | < 16 |  | 
16 | CC(=O)Nc1ccc(Nc2nc(N3C[C@H](N)C[C@H](N)C3)nc(N3C[C@H](N)C[C@H](N)C3)n2)cc1 [drawing 178, N-(4-acetylamino-phenyl)-4,6-Bis-((3R,5S)-3,5-diamino-piperidin-1-yl)-[1,3,5]triazine-2-amine] |  |  | MIC [1]: > 64 µg/mL
17 | Cl.O=C(Oc1ccccc1)c1ccc(Nc2nc(N3CCCCC3)nc(N3CCCCC3)n2)cc1O [drawing 229, 4-[4-((3S,5R)-3,5-diamino-piperidin-1-yl)-6-((3R,5R)-3,5-dihydroxy-piperidin-1-yl)-[1,3,5]triazin-2-ylamino]-2-hydroxy-benzoic acidphenyl ester] |  | − (− means MIC>64 μg/ml in E. coli or S. aureus) | 
18 | Cc1ccc(C(=O)Nc2ccc(Nc3nc(N4CCCCC4)nc(N4CCCC4)n3)cc2O)cc1.Cl [drawing 244, N-{4-[4-((3R,5S)-3,5-Diamino-piperidin-1-yl)-6-((3R,4S)-3,4-dihydrooxy-pyrrolidin-1-yl)-[1,3,5]triazin-2-ylamino]-2-hydroxy-phenyl}-4-methyl-benzamide] |  |  | MIC [1]: > 64 µg/mL
19 | Cc1ccc(C(=O)Nc2ccc(Nc3nc(N4CCCCC4)nc(N4CCCC4)n3)cc2O)cc1.Cl [drawing 285, NM-{4-[4-((3R,5S)-3,5-Diamino-piperidin-1-yl)-6-((3R,4S)-3,4-diamino-pyrrolidin-1-yl)-[1,3,5]triazin-2-ylamino]-2-hydroxy-phenyl}-4-methyl-benzamide] |  | + (+ means MIC<64 μg/ml in E. coli or S. aureus) | 
20 | CC(=O)Nc1ccc(Nc2nc(N3C[C@H](N)C[C@H](N)C3)nc(N3C[C@H](N)C[C@H](N)C3)n2)cc1 [drawing 485, N-(4-acetylamino-phenyl)-4,6-Bis-((3R,5S)-3,5-diamino-piperidin-1-yl)-[1,3,5]triazine-2-amine] | < 64 |  | 
21 | Cl.O=C(Oc1ccccc1)c1ccc(Nc2nc(N3CCCCC3)nc(N3CCCCC3)n2)cc1O [drawing 569, 4-[4,6-Bis-((3R,5S)-3,5-diamino-piperidin-1-yl)-[1,3,5]triazin-2-ylamino]-2-hydroxy-benzoic acidphenyl ester] |  | ++ (++ means MIC<16 μg/ml in E. coli or S. aureus) | 
22 | N-(4-acetylamino-3,5-dichloro-phenyl)-4,6-Bis-0((3R,5S)-3,5-diamino-piperidin-1-yl)-[1,3,5]triazine-2-amine |  | − (− means MIC>64 μg/ml in E. coli or S. aureus) | 
23 | N-(4-phenylazo-phenyl)-4,6-Bis-((3R,5S)-3,5-0diamino-piperidin-1-yl)-[1,3,5]triazine-2-amine |  | ++ (++ means MIC<16 μg/ml in E. coli or S. aureus) | 
24 | N-(4-thioureido-iminomethyl-phenyl)-4,6-Bis-((3R,5S)-3,5-diamino-piperidin-1-yl)-[1,3,5]triazine-2-amine |  | + (+ means MIC<64 μg/ml in E. coli or S. aureus) | 
25 | N-[4-(cyclohexanecarbonyl-amino)-3-hydroxy-phenyl]-4,6-Bis-((3R,5S)-3,5-0diamino-piperidin-1-yl)-[1,3,5]triazine-2-amine |  | + (+ means MIC<64 μg/ml in E. coli or S. aureus) | 
26 | carboxylic acid {4-[4-((2S,4S)-4-amino-2-hydroxymethyl-pyrrolidin-1-yl)-6-((3R,5S)-3,5-diamino-piperidin-1-yl)-[1,3,5]triazine-2-ylamino]-phenyl}-amide |  | ++ (++ means MIC<16 μg/ml in E. coli or S. aureus) | 
